Data on five molecules can be found in the NIST ThermoML archive (doi:10.1021/je050527x).

For data set [1] the following is noted: Liquid; for mass density: 101.33 kPa; for Normal boiling temperature: Fischer boiling-point apparatus.
The nature of data set [2]: refractive index (Na D-line) (dimensionless). The following applies: 293.1 K; 101.33 kPa; Liquid; Standard Abbe refractometry.

± gives the expanded uncertainty stated by the source.

As to `CC(=O)O` [acetic acid], the mass density – broadly, mass per unit of volume – in data set [1] (298.1 K) was 1044.3 ± 0.5 kg/m3. For the same molecule, in data set [1], the Normal boiling temperature was determined as 117.70 ± 0.2 °C. Also, the refractive index (usually a measure of how strongly the sample bends light) in data set [2] was found to be 1.3721 ± 0.0011.
On to `CCCC#N` [butanenitrile], for which, in data set [1] (293.1 K), the mass density is 793.7 ± 1.1 kg/m3. In addition, in data set [1], the Normal boiling temperature was determined as 117.40 ± 0.2 °C. Besides, in data set [2], the refractive index was determined as 1.384 ± 0.0011.
`CC(=O)CC(C)C` [4-methylpentan-2-one]: in data set [1] (298.1 K), the mass density was found to be 796.2 ± 1.1 kg/m3. The Normal boiling temperature in data set [1] stood at 116.30 ± 0.2 °C. For the same molecule, the refractive index in data set [2] is 1.3959 ± 0.0011.
The matching figures for `CCC(=O)O` [propanoic acid]: 988 ± 0.5 kg/m3, 140.90 ± 0.2 °C and 1.3811 ± 0.0011.
On to `CC(=O)OCc1ccccc1` [benzyl ethanoate], for which the mass density in data set [1] (293.1 K) was found to be 1055.2 ± 0.9 kg/m3. Besides, in data set [1], the Normal boiling temperature came to 213.10 ± 0.2 °C. Moreover, in data set [2], the refractive index is on record as 1.5235 ± 0.0011.
